# Laboratory results from ChEMBL document CHEMBL4270535, “Facile synthesis of vanillin-based novel bischalcones identifies one that induces apoptosis and displays synergy with Artemisinin in killing chloroquine resistant Plasmodium falciparum” (Eur J Med Chem, 2018).
# Active and inactive are the calls of the source. The calls are words filed in the database; no cut-off is given here.
# Experiments:
# Plasmodium falciparum [1] = experiment: Antiplasmodial activity against synchronized ring stage of chloroquine-sensitive Plasmodium falciparum 3D7 infected in human erythrocytes after 48 hrs by SYBR Green 1 dye based fluorescence assay; assay type: functional, organism-based; details: 3D7, 48 h
# [2] = Resistance index, ratio of IC50 for synchronized ring stage of chloroquine-resistant Plasmodium falciparum INDO infected in human erythrocytes to IC50 for synchronized ring stage of chloroquine-sensitive Plasmodium falciparum 3D7 infected in human erythrocytes; assay type: functional
# [3] = Selectivity index, ratio of IC50 for mouse L929 cells to IC50 for synchronized ring stage of chloroquine-sensitive Plasmodium falciparum 3D7 infected in human erythrocytes; assay type: toxicity, cell-based; details: read-out: Ratio IC50
# Plasmodium falciparum [4] = experiment: Antiplasmodial activity against synchronized ring stage of chloroquine-resistant Plasmodium falciparum INDO infected in human erythrocytes after 48 hrs by SYBR Green 1 dye based fluorescence assay; assay type: functional, organism-based
# [5] = Selectivity index, ratio of IC50 for human HeLa cells to IC50 for synchronized ring stage of chloroquine-sensitive Plasmodium falciparum 3D7 infected in human erythrocytes; assay type: toxicity, cell-based; details: read-out: Ratio IC50
# Plasmodium falciparum [6] = experiment: Antiplasmodial activity against synchronized ring stage of chloroquine-resistant Plasmodium falciparum Dd2 infected in human erythrocytes after 48 hrs by SYBR Green 1 dye based fluorescence assay; assay type: functional, organism-based; details: Dd2, 48 h
# [7] = Resistance index, ratio of IC50 for synchronized ring stage of chloroquine-resistant Plasmodium falciparum Dd2 infected in human erythrocytes to IC50 for synchronized ring stage of chloroquine-sensitive Plasmodium falciparum 3D7 infected in human erythrocytes; assay type: functional
# Plasmodium falciparum [8] = experiment: (§1) Synergistic plasmodicidal activity against synchronized ring stage of chloroquine-resistant Plasmodium falciparum INDO infected in human erythrocytes assessed as parasite killing at FIC90 treated for 6 to 48 hrs followed by compound wash out measured after 48 to 90 hrs followed by compound wash out measured after 48 to 90 hrs in presence of artemisinin by Giemsa staining based microscopic analysis; assay type: functional, organism-based
# Plasmodium falciparum [9] = experiment: as §1, with “antiplasmodial” for “plasmodicidal”, “growth inhibition” for “killing”, “48” for “48 hrs followed by compound wash out measured after 48 to 90”; assay type: functional, organism-based
# Plasmodium falciparum [10] = experiment: Plasmodicidal activity against synchronized trophozoite stage of chloroquine-resistant Plasmodium falciparum INDO infected in human erythrocytes assessed as parasite killing at 8 uM treated for 18 to 24 hrs followed by compound wash out measured after 48 to 54 hrs by Giemsa staining based microscopic analysis; assay type: functional, organism-based
# Plasmodium falciparum [11] = experiment: Induction of mitochondrial membrane potential loss in synchronized trophozoite stage of chloroquine-resistant Plasmodium falciparum INDO infected in human erythrocytes at 8 uM after 18 to 24 hrs by fluorescence microscopic analysis; assay type: functional, organism-based
# Plasmodium falciparum [12] = experiment: (§2) Plasmodicidal activity against synchronized schizont stage of chloroquine-resistant Plasmodium falciparum INDO infected in human erythrocytes assessed as parasite killing at 8 uM treated for 12 hrs followed by compound wash out measured after 48 hrs by Giemsa staining based microscopic analysis; assay type: functional, organism-based
# Plasmodium falciparum [13] = experiment: Induction of apoptosis in synchronized trophozoite stage of chloroquine-resistant Plasmodium falciparum INDO infected in human erythrocytes assessed as activation of caspase-like protease at 8 uM after 12 hrs by Caspase FITC-VAD-FMK substrate based flow cytometry; assay type: functional, organism-based
# Plasmodium falciparum [14] = experiment: (§3) Synergistic antiplasmodial activity against synchronized ring stage of chloroquine-resistant Plasmodium falciparum INDO infected in human erythrocytes assessed as parasite growth inhibition at 2 times FIC100 treated for 6 to 48 hrs followed by compound wash out measured after 48 to 90 hrs in presence of chloroquine by Giemsa staining based microscopic analysis; assay type: functional, organism-based
# Plasmodium falciparum [15] = experiment: as §1, with “schizont” for “ring”, “2 times FIC100” for “FIC90”, “12” for “6 to 48”, “48” for “48 to 90 hrs followed by compound wash out measured after 48 to 90”; assay type: functional, organism-based
# Plasmodium falciparum [16] = experiment: Synergistic antiplasmodial activity against synchronized ring stage of chloroquine-resistant Plasmodium falciparum INDO infected in human erythrocytes assessed as FIC index in presence of chloroquine; assay type: functional
# Plasmodium falciparum [17] = experiment: Induction of apoptosis in synchronized trophozoite stage of chloroquine-resistant Plasmodium falciparum INDO infected in human erythrocytes assessed as parasite killing at 8 uM up to 24 hrs by Giemsa staining based microscopic analysis; assay type: functional, organism-based
# Plasmodium falciparum [18] = experiment: as §1, with “2 times FIC100” for “FIC90”; assay type: functional, organism-based
# Plasmodium falciparum [19] = experiment: Antiplasmodial activity against synchronized ring stage of chloroquine-resistant Plasmodium falciparum INDO infected in human erythrocytes assessed as parasite growth inhibition at 8 uM treated for 6 to 48 hrs by Giemsa staining based microscopic analysis; assay type: functional, organism-based
# Plasmodium falciparum [20] = experiment: Synergistic antiplasmodial activity against synchronized ring stage of chloroquine-sensitive Plasmodium falciparum 3D7 infected in human erythrocytes assessed as FIC index in presence of artemisinin; assay type: functional
# Plasmodium falciparum [21] = experiment: as §3, with “schizont” for “ring”, “12” for “6 to 48”, “48” for “48 to 90”; assay type: functional, organism-based
# Plasmodium falciparum [22] = experiment: as §3, with “synchronized trophozoite” for “synchronized ring”, “for 18” for “for 6”, “to 24” for “to 48”, “to 54” for “to 90”; assay type: functional, organism-based
# Plasmodium falciparum [23] = experiment: Induction of apoptosis in synchronized trophozoite stage of chloroquine-resistant Plasmodium falciparum INDO infected in human erythrocytes assessed as activation of caspase-like protease at 8 uM after 12 hrs by Caspase FITC-VAD-FMK substrate based fluorescence microscopic analysis; assay type: functional, organism-based
# Plasmodium falciparum [24] = experiment: as §3, with “schizont” for “ring”, “FIC90” for “2 times FIC100”, “12” for “6 to 48”, “48” for “48 to 90”; assay type: functional, organism-based
# Plasmodium falciparum [25] = experiment: Induction of apoptosis in synchronized trophozoite stage of chloroquine-resistant Plasmodium falciparum INDO infected in human erythrocytes assessed as chromatin fragmentation at 8 uM after 24 hrs by agarose gel electrophoresis method; assay type: functional, organism-based
# Plasmodium falciparum [26] = experiment: Induction of apoptosis in synchronized trophozoite stage of chloroquine-resistant Plasmodium falciparum INDO infected in human erythrocytes assessed as chromatin fragmentation at 8 uM by Hoechst 33342 staining based fluorescence microscopic analysis; assay type: functional, organism-based; details: TDE = time-dependent effect
# Plasmodium falciparum [27] = experiment: as §2, with “ring” for “schizont”, “6 to 48” for “12”, “48 to 90” for “48”; assay type: functional, organism-based
# Plasmodium falciparum [28] = experiment: (§4) Synergistic antiplasmodial activity against synchronized schizont stage of chloroquine-resistant Plasmodium falciparum INDO infected in human erythrocytes assessed as parasite growth inhibition at FIC90 treated for 12 hrs followed by compound wash out measured after 48 hrs in presence of artemisinin by Giemsa staining based microscopic analysis; assay type: functional, organism-based
# Plasmodium falciparum [29] = experiment: (§5) Synergistic plasmodicidal activity against synchronized trophozoite stage of chloroquine-resistant Plasmodium falciparum INDO infected in human erythrocytes assessed as parasite killing at 2 times FIC100 treated for 18 to 24 hrs followed by compound wash out measured after 48 to 54 hrs followed by compound wash out measured after 48 to 54 hrs in presence of artemisinin by Giemsa staining based microscopic analysis; assay type: functional, organism-based
# Plasmodium falciparum [30] = experiment: as §4, with “trophozoite” for “schizont”, “18 to 24” for “12”, “48 to 54” for “48”, “chloroquine” for “artemisinin”; assay type: functional, organism-based
# Plasmodium falciparum [31] = experiment: Synergistic antiplasmodial activity against synchronized ring stage of chloroquine-sensitive Plasmodium falciparum 3D7 infected in human erythrocytes assessed as ratio of IC50 in absence of artemisinin to IC50 in presence of artemisinin; assay type: functional
# Plasmodium falciparum [32] = experiment: (§6) Induction of apoptosis in synchronized trophozoite stage of chloroquine-resistant Plasmodium falciparum INDO infected in human erythrocytes assessed as translocation of phosphatidylserine from inner to outer leaflet of plasma membrane at 8 uM after 12 hrs by Annexin-V/Alexa fluor-488 staining based fluorescence microscopic analysis; assay type: functional, organism-based
# Plasmodium falciparum [33] = experiment: Synergistic antiplasmodial activity against synchronized ring stage of chloroquine-sensitive Plasmodium falciparum 3D7 infected in human erythrocytes assessed as FIC index in presence of chloroquine; assay type: functional
# Plasmodium falciparum [34] = experiment: as §5, with “FIC90” for “2 times FIC100”; assay type: functional, organism-based
# Plasmodium falciparum [35] = experiment: Synergistic antiplasmodial activity against synchronized ring stage of chloroquine-resistant Plasmodium falciparum INDO infected in human erythrocytes assessed as FIC index in presence of artemisinin; assay type: functional
# Plasmodium falciparum [36] = experiment: as §3, with “FIC90” for “2 times FIC100”; assay type: functional, organism-based
# Plasmodium falciparum [37] = experiment: as §6, with “flow cytometry” for “fluorescence microscopic analysis”; assay type: functional, organism-based
# Plasmodium falciparum [38] = experiment: as §1, with “chloroquine” for “artemisinin”; assay type: functional, organism-based
# Plasmodium falciparum [39] = experiment: Antiplasmodial activity against synchronized schizont stage of chloroquine-resistant Plasmodium falciparum INDO infected in human erythrocytes assessed as parasite growth inhibition at 8 uM treated for 12 hrs by Giemsa staining based microscopic analysis; assay type: functional, organism-based
# Plasmodium falciparum [40] = experiment: as §5, with “FIC90” for “2 times FIC100”, “chloroquine” for “artemisinin”; assay type: functional, organism-based
# Plasmodium falciparum [41] = experiment: as §4, with “trophozoite” for “schizont”, “18 to 24” for “12”, “48 to 54” for “48”; assay type: functional, organism-based
# Plasmodium falciparum [42] = experiment: Antiplasmodial activity against synchronized trophozoite stage of chloroquine-resistant Plasmodium falciparum INDO infected in human erythrocytes assessed as parasite growth inhibition at 8 uM treated for 18 to 24 hrs by Giemsa staining based microscopic analysis; assay type: functional, organism-based
structure (smiles),measurement,setting,value
C=CCOc1ccc(C(=O)/C=C/c2cc(OC)c(OCC=C)c(-c3cc(/C=C/C(=O)c4ccc(OCC=C)cc4OCC=C)cc(OC)c3OCC=C)c2)c(OCC=C)c1,IC50,Plasmodium falciparum [1],63 µM
C=CCOc1c(OC)cc(/C=C/C(=O)c2ccc(Cl)cc2)cc1-c1cc(/C=C/C(=O)c2ccc(Cl)cc2)cc(OC)c1OCC=C,IC50,Plasmodium falciparum [1],> 50 µM
C=CCOc1c(OC)cc(/C=C/C(=O)c2ccc(OC)cc2)cc1-c1cc(/C=C/C(=O)c2ccc(OC)cc2)cc(OC)c1OCC=C,IC50,Plasmodium falciparum [1],57 µM
C=CCOc1c(OC)cc(/C=C/C(=O)c2ccc3c(c2)OCO3)cc1-c1cc(/C=C/C(=O)c2ccc3c(c2)OCO3)cc(OC)c1OCC=C,Ratio IC50,[2],0.1
same,selectivity ratio,[3],> 2.6
same,IC50,Plasmodium falciparum [4],3.8 µM
same,selectivity ratio,[5],> 2.6
same,IC50,Plasmodium falciparum [1],38 µM
same,IC50,Plasmodium falciparum [6],3.8 µM
same,Ratio IC50,[7],0.1
COc1cc(/C=C/C(=O)c2ccccc2)cc(-c2cc(/C=C/C(=O)c3ccccc3)cc(OC)c2OC)c1OC,Ratio IC50,[2],0.4
same,selectivity ratio,[3],1.1
same,IC50,Plasmodium falciparum [4],3.7 µM
same,selectivity ratio,[5],12.4
same,IC50,Plasmodium falciparum [1],9.3 µM
same,IC50,Plasmodium falciparum [6],3.7 µM
same,Ratio IC50,[7],0.4
C=CCOc1c(OC)cc(/C=C/C(=O)c2ccc([N+](=O)[O-])cc2)cc1-c1cc(/C=C/C(=O)c2ccc([N+](=O)[O-])cc2)cc(OC)c1OCC=C,Ratio IC50,[2],0.2
same,selectivity ratio,[3],3.2
same,IC50,Plasmodium falciparum [4],5 µM
same,selectivity ratio,[5],> 4
same,IC50,Plasmodium falciparum [1],25 µM
same,IC50,Plasmodium falciparum [6],9.3 µM
same,Ratio IC50,[7],0.37
C=CCc1cc(/C=C/C(=O)c2cccc(C(=O)/C=C/c3cc(CC=C)c(OC)c(OC)c3)c2)cc(OC)c1OC,Activity,Plasmodium falciparum [8],inactive
same,Activity,Plasmodium falciparum [9],Active
same,Activity,Plasmodium falciparum [10],Active
same,Activity,Plasmodium falciparum [11],Active
same,Ratio IC50,[2],1.5
same,Activity,Plasmodium falciparum [12],Active
same,Activity,Plasmodium falciparum [13],Active
same,Activity,Plasmodium falciparum [14],Active
same,Activity,Plasmodium falciparum [15],inactive
same,fractional inhibitory concentration index (FICI),Plasmodium falciparum [16],0.7 - 1.23
same,Activity,Plasmodium falciparum [17],Active
same,Activity,Plasmodium falciparum [18],Active
same,selectivity ratio,[3],8.8
same,Activity,Plasmodium falciparum [19],Active
same,fractional inhibitory concentration index (FICI),Plasmodium falciparum [20],1.33 - 1.58
same,Activity,Plasmodium falciparum [21],Active
same,IC50,Plasmodium falciparum [4],3.8 µM
same,Activity,Plasmodium falciparum [22],Active
same,Activity,Plasmodium falciparum [23],Active
same,selectivity ratio,[5],11.2
same,Activity,Plasmodium falciparum [24],Active
same,Activity,Plasmodium falciparum [25],Active
same,Activity,Plasmodium falciparum [26],Tde
same,Activity,Plasmodium falciparum [27],Active
same,Activity,Plasmodium falciparum [28],Active
same,Activity,Plasmodium falciparum [29],inactive
same,Activity,Plasmodium falciparum [30],Active
same,Ratio IC50,Plasmodium falciparum [31],20 - 311
same,Activity,Plasmodium falciparum [32],Active
same,fractional inhibitory concentration index (FICI),Plasmodium falciparum [33],1.38 - 3.34
same,IC50,Plasmodium falciparum [1],2.5 µM
same,Activity,Plasmodium falciparum [34],inactive
same,fractional inhibitory concentration index (FICI),Plasmodium falciparum [35],0.46 - 0.58
same,Activity,Plasmodium falciparum [36],Active
same,Activity,Plasmodium falciparum [37],Active
same,IC50,Plasmodium falciparum [6],3.5 µM
same,Activity,Plasmodium falciparum [38],inactive
same,Activity,Plasmodium falciparum [39],Active
same,Activity,Plasmodium falciparum [40],inactive
same,Ratio IC50,[7],1.4
same,Activity,Plasmodium falciparum [41],Active
same,Activity,Plasmodium falciparum [42],Active
